Reference: patent publication EP0155454A1, “Use of pirenzepine, its salts or medicaments containing pirenzepine for the treatment of colon disorders” (Dr. Karl Thomae GmbH, priority 1984, dated 1985)
Where a name gives a salt, the structure may show the parent alone. Read-outs that look alike come from different tables or passages of the source.

Legend:
[1] = system: Dickdarmmotorik; details: in vivo; cited from earlier work
[2] = system: Darmmotilität; details: cited from earlier work
[3] = system: Colon irritabile; experiment: Double-blind cross-over clinical study versus placebo in patients with Colon irritabile; type: in vivo, Patienten; details: for symptomfrei oder gebessert: 2 x 25 mg/Tag, 2 weeks per period, 30 Patienten
Excerpt: Bei klinischen Untersuchungen an 30 Patienten mit dem angegebenen Beschwerdebild Colon irritabile, wobei sich trotz umfangreicher diagnostischer Maßnahmen bei keinem der Patienten ein pathologischer Befund ergab, wurde Pirenzepin-dihydrochloridmonohydrat zum Einsatz gebracht. Da es für einen möglichen Therapieerfolg bei der geschilderten Indikation keinen objektivierbaren Parameter gibt, wurde jeder Patient in Doppelblind-cross over-Technik entweder mit Pirenzepin oder mit Placebo behandelt. Die Dosierung betrug 2 x 25 mg/Tag. Der Versuchsplan ermöglichte also bei jedem Patienten einen zweimal 2-wöchigen Beobachtungszeitraum. Die geprüften Parameter waren Obstipation, Diarrhoe, Schafkotstuhl, wechselnde Stühle und Schleimabsonderung. Die Beurteilung der therapeutischen Wirkung erfolgte vor Beginn der Behandlung und nach jedem einzelnen Versuchsabschnitt. Jeder Patient erhielt einen weitgefächerten Score, um seine subjektiven Eindrücke festzuhalten. Diese Angaben wurden ausgewertet, wobei die generalisierten Befunde bezüglich der Einzelsymptomatik in der nachstehenden Tabelle aufgeführt sind: […]

[4] = system: Dickdarmmotorik; experiment: Neostigmine-stimulated colon motility in healthy volunteers, acute intravenous pirenzepine; type: in vivo, freiwilligen Probanden
Excerpt: Pirenzepin löst einen krankhaften Spasmus im Darmtrakt ohne den Darm zu lähmen. Um dieses zu beweisen, bzw. um zu überprüfen, ob Pirenzepin anders als Atropin die gestörten motorischen Verhältnisse zu beeinflussen in der Lage ist und sich damit von Anticholinergika, Atropin oder Atropinderivaten unterscheidet, wurde die Dickdarmmotorik bei freiwilligen Probanden mit Neostigmin stimuliert und im Akutversuch Pirenzepin intravenös in therapeutischen Dosen verabreicht. In einer zweiten Serie wurden die Druck- und Motorikverhältnisse bei Patienten mit Colon irritabile vor und nach einer oralen Therapie mit Pirenzepin geprüft. Die dabei erzielten Ergebnisse lassen sich wie folgt zusammenfassen: Im Vergleich zur basalen Untersuchungsperiode konnte unter Neostigminstimulation an gesunden Testpersonen eine signifikante Zunahme der Druckamplitude um 21 %, der Kontraktionsdauer um 76 % und ein Anstieg des Motilitätsindex um 82 % beobachtet werden.

[5] = intravenös, therapeutic doses, after Neostigmin stimulation

CN1C2CCC1CC(OC(=O)C(CO)c1ccccc1)C2 (racemic) [Atropin]
propulsive motorische Kontraktionen [1]: zum Erliegen bringt | Verminderung der Darmmotilität ([2]; in vivo): eine Verminderung der Darmmotilität bewirkt

CN1CCN(CC(=O)N2c3ccccc3C(=O)Nc3cccnc32)CC1 [Gastrozepin, 5,11-Dihydro-11 [(4-methyl-piperazin-1-yl)acetyl]-6H-pyrido [2,3-b] [1,4] benzodiazpin-6-on-dihydrochloridmonohydrat]
symptomfrei oder gebessert ([3]; Symptom Diarrhoe): 84% | symptomfrei oder gebessert ([3]; Symptom Obstipation): 72% | symptomfrei oder gebessert ([3]; Symptom Schafkotstuhl): 80% | symptomfrei oder gebessert ([3]; Symptom Schleimabsonderung): 83% | symptomfrei oder gebessert ([3]; Symptom Wechselnde Stühle): 89%

CN(C)C(=O)Oc1cccc([N+](C)(C)C)c1 [Neostigmin]
Anstieg des Motilitätsindex ([4]; in vivo): 82% | Zunahme der Druckamplitude ([4]; in vivo): 21% | Zunahme der Kontraktionsdauer ([4]; in vivo): 76%

CN1CCN(CC(=O)N2c3ccccc3C(=O)Nc3cccnc32)CC1 [Pirenzepin, 5,11-Dihydro-11-[(4-methyl-piperazin-1-yl)-acetyl)-6H-pyrido [2,3-b] [1,4] benzodiazepin-6-on]
Abnahme der Druckamplitude [4, 5]: bis zum Ausgangsniveau | Abnahme der Kontraktionsdauer [4, 5]: bis zum Ausgangsniveau | Abnahme der propulsiven Kontraktionen [4, 5]: nicht zu registrieren | Abnahme des Motilitätsindex [4, 5]: bis zum Ausgangsniveau | Neostigmin-induzierte segmentale Kolonkontraktionen ([4]; summary statement): vermindert | Unterschiede zwischen der Placebogruppe und der Verumgruppe ([3]; all tested parameters): signifikante bis hochsignifikante Unterschieden zugunsten von Pirenzepin | Wirksamkeit in der Indikation Colon irritabile ([3]; overall assessment): sehr gut wirksam | Verminderung der Darmmotilität ([2]; therapeutische Höchstdosen): nicht sichtbar
